In patent publication US12491209B2, “Dissolved C60 and method of producing dissolved C60” (Innovation for Success, LLC, priority 2019, dated 2025):
In brackets after ≈: the same amount, converted by molar mass. Read-outs that look alike come from different tables or passages of the source.

Key:
[1] = cited from earlier work
[2] = Solubility of C60 in limonene composition / d-limonene by heating method 200; format: physicochemical
Excerpt: As shown in the flowchart of FIG. 2 and with additional reference to FIG. 3, a method 200 for dissolving C60 304 in a liquid medium that is non-toxic and safe for human consumption includes combining C60 304 with a limonene composition 308 to form a C60 mixture 312. (Block 204). The limonene composition 308 is discussed in connection with the method 200, but the limonene composition 308 may be substituted with orange terpenes or other edible and non-toxic terpenes (or terpene containing liquids). The limonene composition 308 is used over orange terpenes, because the limonene composition 308 has a more pleasant and less bitter taste. In one embodiment, the limonene composition 308 is at least 95% d-limonene by volume, with the remaining 5% including any other liquid, such as limonene, flavoring, fragrances, and the like. In another embodiment, the limonene composition 308 is at least 75% d-limonene with the remaining 25% including any other liquid, such as limonene, flavoring, fragrances, and the like.
At block 204 of the method 200, the C60 304 is pulverized into a powdered form and combined with the liquid limonene composition 308 in a glass vessel (not shown) or any other heat-safe and non-reactive container. Additionally or alternatively, the C60 304 is not pulverized and is added to the limonene composition 308 in granular, chunky, or crystalline state. […]

IgE = conditions: animal models, applied topically; cited from earlier work
[3] = per single C60 molecule; cited from earlier work
[4] = C60 molecules diffuse out of the body; cited from earlier work

- Solubility Limit ([2]; solvent d-limonene, results achieved by method 200): 16670 µg/mL (≈ 23100 µM)
SMILES: c12c3c4c5c1c1c6c7c2c2c8c3c3c9c4c4c%10c5c5c1c1c6c6c%11c7c2c2c7c8c3c3c8c9c4c4c9c%10c5c5c1c1c6c6c%11c2c2c7c3c3c8c4c4c9c5c1c1c6c2c3c41 [C60, Buckminsterfullerene]
- Solubility Limit ([1]; solvent 1,2-dichlorobenzene): 27000 µg/mL (≈ 37500 µM)
- Solubility Limit ([1]; solvent 1-chloronaphthalene): 41000 µg/mL (≈ 56900 µM)
- Solubility Limit ([1]; solvent 1-methylnaphthalene): 33000 µg/mL (≈ 45800 µM)
- Solubility Limit ([1]; solvent acetone): 1 µg/mL (≈ 1.39 µM)
- Solubility Limit ([1]; solvent anisole): 5600 µg/mL (≈ 7770 µM)
- Solubility Limit ([1]; solvent benzene): 1700 µg/mL (≈ 2360 µM)
- Solubility Limit ([1]; solvent benzonitrile): 410 µg/mL (≈ 569 µM)
- Solubility Limit ([1]; solvent carbon disulfide): 7900 µg/mL (≈ 11000 µM)
- Solubility Limit ([1]; solvent carbon tetrachloride): 447 µg/mL (≈ 620 µM)
- Solubility Limit ([1]; solvent chloroform): 160 µg/mL (≈ 222 µM)
- Solubility Limit ([1]; solvent cyclohexane): 36 µg/mL (≈ 50 µM)
- Solubility Limit ([1]; solvent decalins): 4600 µg/mL (≈ 6380 µM)
- Solubility Limit ([1]; solvent dichloromethane): 260 µg/mL (≈ 361 µM)
- Solubility Limit ([1]; solvent ethanol): 1.4 µg/mL (≈ 1.94 µM)
- Solubility Limit in mg/ml ([1]; solvent isopropanol): ND (“ND” indicates that C60 in insoluble in the identified solvent)
- Solubility Limit in mg/ml ([1]; solvent methanol): ND (“ND” indicates that C60 in insoluble in the identified solvent)
- Solubility Limit ([1]; solvent n-decane): 71 µg/mL (≈ 98.5 µM)
- Solubility Limit ([1]; solvent n-hexane): 43 µg/mL (≈ 59.7 µM)
- Solubility Limit ([1]; solvent n-pentane): 5 µg/mL (≈ 6.94 µM)
- Solubility Limit ([1]; solvent octanol): 42.9 µg/mL (≈ 59.5 µM)
- Solubility Limit ([1]; solvent tetrachloromethane): 320 µg/mL (≈ 444 µM)
- Solubility Limit in mg/ml ([1]; solvent tetrahydrofuran): ND (“ND” indicates that C60 in insoluble in the identified solvent)
- Solubility Limit ([1]; solvent tetralin): 16000 µg/mL (≈ 22200 µM)
- Solubility Limit ([1]; solvent toluene): 2800 µg/mL (≈ 3890 µM)
- Solubility Limit ([1]; solvent water): 1.3e-08 µg/mL (≈ 1.8e-08 µM)
- Solubility Limit ([1]; solvent xylene): 5200 µg/mL (≈ 7220 µM)
- dissolution of C60 into the limonene composition without heating ([2]; room temperature 70° F. (21° C.)): does not dissolve to any significant extent
- IgE reduction (IgE): reduce IgE significantly
- free electrons / methyl radicals absorbed per C60 molecule [3]: up to thirty-four
- residence time in the body [4]: about five
